Data published in PMC11898654, “The Na^+-K^+-ATPase alpha subunit is an entry receptor for white spot syndrome virus” (mBio, 2025).
Structures can show the parent of a compound that is named as a salt.

What was measured:
WSSV [1] = assay: Endocytic inhibitors injected into shrimp, WSSV entry and replication in hemocytes; type: in vivo, White spot syndrome virus; details: shrimp injected with inhibitor before WSSV; for effect on WSSV entry and replication in shrimp hemocytes: qPCR and flow cytometry, entry 4 h, replication 24 h post-infection
Experimental: Given that viruses enter host cells by exploiting various endocytic pathways, such as clathrin-mediated endocytosis, caveolin-mediated endocytosis, and macropinocytosis ([31]), we went on to examine which of these endocytic pathways is used by WSSV to enter hemocytes. […].
Fig. S5 WSSV entry into shrimp hemocytes through multiple endocytic pathways. (A-F) Identification of endocytic pathways triggered by WSSV. Shrimps were injected with either WSSV or PBS (negative control), and hemocytes were harvested 4 hours post-infection. Hemocytes were incubated with endocytic markers TFN-AF555, CTB-AF555, and DTN-AF568, and uptake rates were analyzed by flow cytometry. Panels (A-C) display representative flow cytometry images for the uptake of TFN-AF555, CTB-AF555, and DTN-AF568, respectively. Quantified uptake rates from three independent experiments are shown in panels (D-F). (G-J) Impact of endocytic inhibitors on WSSV entry. Shrimps were injected with the inhibitors CPZ, GEN, or AMR, and hemocytes were collected 2 hours later for cytotoxicity analysis using the CCK8 kit (G). FITC-labeled or unlabeled WSSV particles were subsequently injected, and hemocytes were harvested 4 hours post-infection for flow cytometry (H) and qPCR (J) to assess WSSV entry. Data from three independent flow cytometry assays are presented in panel (I). (K) Effect of endocytic inhibitors on WSSV replication. Shrimps were injected with WSSV particles following inhibitor treatment, and hemocytes were collected 24 hours post-infection for WSSV copy number quantification via qPCR. Statistical significance was determined using a two-tailed Student’s t-test. * P < 0.05, ** P < 0.01, and *** P < 0.001.

WSSV [2] = assay: Endocytic inhibitor treatment, WSSV entry in PvATP1A-overexpressing PAC2 cells; type: cell-based, White spot syndrome virus; details: 5 µM inhibitor pre-treatment 30 min, WSSV MOI = 0.1 for 1 h, qPCR, compared with cells treated with CPZ
Experimental: Endocytic inhibitors, chlorpromazine hydrochloride (CPZ, Cat. No. HY-B0407A), genistein (GEN, Cat. No. HY-14596), and amiloride hydrochloride (AMR, Cat. No. HY-B0285A), were purchased from MedChemexpress. Zebrafish PAC2 fibroblast cells were transfected with either the PvATP1A expression plasmid (pEGFP-N1-PvATP1A) or the control plasmid pEGFP-N1. Forty-eight hours post-transfection, cells expressing pEGFP-PvATP1A were pre-treated with 5 µM of each endocytic inhibitor (CPZ, GEN, and AMR) or DMSO (as a control) for 30 min. Following pre-treatment, cells were infected with WSSV (MOI = 0.1) for 1 h. The cells were then washed thrice with PBS, and DNA was extracted for quantification of WSSV copy numbers using qPCR. Cytotoxicity of the endocytic inhibitors on PAC2 cells was assessed using the CCK8 kit (Beyotime, China, Cat. No. C0037), following the manufacturer’s instructions.

WSSV VP28 protein = WSSV VP28 protein (White spot syndrome virus, UniProt Q9ICB7); type: binding; details: SPR, different concentrations of the synthetic peptides
Experimental: SPR experiments were conducted using a Biacore T200 system (GE Healthcare, USA). […] Regeneration of the sensor chip was performed by injecting glycine (pH 3.0) for 30 s at a flow rate of 30 µL/min. The Biacore Insight Evaluation Software application was utilized to analyze the association and dissociation rates using a steady state affinity analysis, and the equilibrium dissociation constant (KD) was determined as the ratio of the dissociation rate to the association rate.

Q: With `N=C(N)NC(=O)c1nc(Cl)c(N)nc1N` [AMR, amiloride hydrochloride] as the compound, how does the “effect on WSSV entry and replication in shrimp hemocytes” value (“effect on WSSV entry and replication” below) (WSSV [1]) read?
A: inhibited WSSV entry and replication

Q: What about the “WSSV entry, viral copy numbers in PvATP1A-overexpressing cells” value (WSSV [2]) of the same compound?
A: significantly decreased viral copy numbers

Q: For `CN(C)CCCN1c2ccccc2Sc2ccc(Cl)cc21` [CPZ, chlorpromazine hydrochloride], which “effect on WSSV entry and replication” value (WSSV [1]) is on record?
A: inhibited WSSV entry and replication

Q: Which “ranking among the endocytic inhibitors for virus entry” value (WSSV [1]) does the source give for `O=c1c(-c2ccc(O)cc2)coc2cc(O)cc(O)c12` [GEN, genistein] here?
A: most potent inhibitors of virus entry

Q: What about the “effect on WSSV entry and replication” value (WSSV [1]) of the same compound?
A: inhibited WSSV entry and replication

Q: What about the “WSSV entry, viral copy numbers in PvATP1A-overexpressing cells” value (WSSV [2]) of the same compound?
A: significantly decreased viral copy numbers

Q: How did the “change in response units (RU) of the VP28-coated chip” value (WSSV VP28 protein) turn out when MVSKGEELFT [pEGFP] was run?
A: no changes in the response units
